The text below walks through data of patent publication US11529362B2, “Physiologically balanced injectable formulations of fosnetupitant” (HELSINN HEALTHCARE SA, priority 2016, dated 2022).

The conditions of data set [1]: presence of EDTA, in proportion to its concentration in solution.
For data set [2] the following is noted: Akynzeo prescribing information, cited from earlier work.
Data set [3] in a line: p-Netu solubility studies. Type of data set: physicochemical. The settings on record: in water at acidic pH values less than 7.0. An excerpt:
A study was undertaken to determine the maximum allowable concentration of netupitant in aqueous solutions of p-Netu, above which unacceptable precipitation is observed.

Like-named read-outs stand apart in the source and are kept apart here.

`O=C([O-])CN(CCN(CC(=O)[O-])CC(=O)O)CC(=O)O.[Na+].[Na+]` [EDTA, Disodium edetate]: the “conversion of p-Netu to 14-Netu” value in data set [1] is “reduced”.
`Cc1ccccc1-c1cc(N2CCN(C)CC2)ncc1N(C)C(=O)C(C)(C)c1cc(C(F)(F)F)cc(C(F)(F)F)c1` [netupitant, 2-(3,5-bis(trifluoromethyl)phenyl)-N,2-dimethyl-N-(6-(4-methylpiperazin-1-yl)-4-(o-tolyl)pyridine-3-yl)propanamide]: the systemic exposure result was “greater than dose-proportional increase” in data set [2] (dose increase from 10 mg to 300 mg) and “dose-proportional increase” in data set [2] (dose increase from 300 mg to 450 mg).
For the compound `Cc1ccccc1-c1cc(N2CC[N+](C)(COP(=O)([O-])O)CC2)ncc1N(C)C(=O)C(C)(C)c1cc(C(F)(F)F)cc(C(F)(F)F)c1` [p-Netu, 4-(5-(2-(3,5-bis(trifluoromethyl)phenyl)-N,2-dimethylpropanamido)-4-(o-tolyl)pyridin-2-yl)-1-methyl-1-((phosphonooxy)methyl) piperazin-1-ium], the p-Netu solubility entry in data set [3] is on record as “drops significantly”.
